Here are results for 21 compounds from ChEMBL document CHEMBL1139644, “Pharmacophore-based design, synthesis, biological evaluation, and 3D-QSAR studies of aryl-piperazines as alpha(1)-adrenoceptor antagonists” (Bioorg Med Chem Lett, 2005).

The structures appear in SMILES notation.

The test concerns the target T1, Adrenergic receptor alpha-1 (Rattus norvegicus, UniProt P15823+P23944+P43140).
T1 sequence (P15823 whole entry): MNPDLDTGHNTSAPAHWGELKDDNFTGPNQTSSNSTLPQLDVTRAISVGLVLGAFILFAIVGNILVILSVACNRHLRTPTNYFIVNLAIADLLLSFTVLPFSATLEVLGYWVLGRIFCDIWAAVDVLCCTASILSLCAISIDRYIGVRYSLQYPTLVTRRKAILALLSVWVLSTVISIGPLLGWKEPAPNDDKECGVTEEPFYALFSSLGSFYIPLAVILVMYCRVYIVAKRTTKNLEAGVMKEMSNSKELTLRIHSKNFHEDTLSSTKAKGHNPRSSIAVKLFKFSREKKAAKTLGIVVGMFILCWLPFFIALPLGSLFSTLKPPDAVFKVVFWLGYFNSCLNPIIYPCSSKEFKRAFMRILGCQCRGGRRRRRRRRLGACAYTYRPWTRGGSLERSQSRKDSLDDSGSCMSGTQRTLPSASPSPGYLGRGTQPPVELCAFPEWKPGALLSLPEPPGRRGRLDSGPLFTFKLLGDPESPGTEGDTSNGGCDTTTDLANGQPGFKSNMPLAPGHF
T1 sequence (P23944 whole entry): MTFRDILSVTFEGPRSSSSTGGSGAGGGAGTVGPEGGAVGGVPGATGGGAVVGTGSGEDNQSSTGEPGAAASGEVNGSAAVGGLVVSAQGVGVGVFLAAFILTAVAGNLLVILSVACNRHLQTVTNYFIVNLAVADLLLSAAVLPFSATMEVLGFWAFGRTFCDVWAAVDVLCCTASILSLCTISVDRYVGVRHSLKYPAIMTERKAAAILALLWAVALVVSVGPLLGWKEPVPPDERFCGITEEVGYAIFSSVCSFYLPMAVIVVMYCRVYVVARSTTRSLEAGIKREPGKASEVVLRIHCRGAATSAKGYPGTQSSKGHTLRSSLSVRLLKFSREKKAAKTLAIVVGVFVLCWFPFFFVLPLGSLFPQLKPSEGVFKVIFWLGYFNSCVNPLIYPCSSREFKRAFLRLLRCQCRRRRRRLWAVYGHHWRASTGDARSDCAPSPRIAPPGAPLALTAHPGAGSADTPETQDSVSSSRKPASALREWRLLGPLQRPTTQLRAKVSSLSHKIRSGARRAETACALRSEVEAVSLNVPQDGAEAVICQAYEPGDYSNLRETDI
T1 sequence (P43140 whole entry): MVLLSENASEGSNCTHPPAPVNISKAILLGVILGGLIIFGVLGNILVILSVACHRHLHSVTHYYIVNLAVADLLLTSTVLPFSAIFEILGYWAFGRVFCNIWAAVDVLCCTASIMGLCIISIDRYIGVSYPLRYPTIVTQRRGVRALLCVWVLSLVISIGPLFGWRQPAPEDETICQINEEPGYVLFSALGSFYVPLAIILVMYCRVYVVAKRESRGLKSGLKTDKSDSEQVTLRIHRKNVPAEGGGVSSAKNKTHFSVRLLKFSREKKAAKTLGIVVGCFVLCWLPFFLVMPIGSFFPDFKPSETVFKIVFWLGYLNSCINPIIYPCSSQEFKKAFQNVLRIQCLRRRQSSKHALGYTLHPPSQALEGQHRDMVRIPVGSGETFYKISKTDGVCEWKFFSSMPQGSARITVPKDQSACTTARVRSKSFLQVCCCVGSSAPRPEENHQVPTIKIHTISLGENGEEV
In words: Antagonistic activity for Alpha-1 adrenergic receptor was measured as inhibition of phenylephrine-[…] contractions in isolated Sprague-Dawley rat anacoccygeal muscles. The test is classed as functional.
What is called pA2 is a measure of antagonist potency on a negative log scale. The compound `COc1cccc(N2CCN(CCNC(=O)c3ccco3)CC2)c1` gave a pA2 of 8.56.
Compound `COc1ccc(Cl)cc1N1CCN(CCNC(=O)c2cc3ccccc3oc2=O)CC1` returned a pA2 of 7.31.
`COc1ccc(N2CCN(CCNC(=O)c3ccncc3)CC2)cc1` yielded a pA2 of 5.95.
The result for `Cc1ccc(N2CCN(CCNC(=O)c3ccco3)CC2)c(C)c1` reads 7.72.
`COc1ccc(Cl)cc1N1CCN(CCNC(=O)c2cccnc2)CC1` gave a pA2 of 5.56.
The result for `COc1ccccc1N1CCN(CCNC(=O)c2ccco2)CC1` reads 9.12; that for `COc1ccc(N2CCN(CCNC(=O)c3ccco3)CC2)cc1`, 7.85; that for `Cc1ccc(N2CCN(CCNC(=O)c3cc4ccccc4o3)CC2)c(C)c1`, 7.36.
Regarding `Cc1ccc(N2CCN(CCNC(=O)c3cccnc3)CC2)cc1`, the pA2 is 6.53.
The result for `COc1ccccc1N1CCN(CCNC(=O)c2cc3ccccc3oc2=O)CC1` reads 7.71; that for `COc1ccc(Cl)cc1N1CCN(CCNC(=O)c2cc3ccccc3o2)CC1`, 5.63; that for `Cc1ccc(N2CCN(CCNC(=O)c3ccncc3)CC2)cc1`, 6.5.
With `COc1ccc(Cl)cc1N1CCN(CCNC(=O)c2ccco2)CC1`, the pA2 is given as 8.56.
The result for `Cc1ccc(N2CCN(CCNC(=O)c3ccncc3)CC2)c(C)c1` reads 7.07; that for `Cc1ccc(N2CCN(CCNC(=O)c3cc4ccccc4o3)CC2)cc1`, 6.92; that for `Cc1ccc(N2CCN(CCNC(=O)c3ccco3)CC2)cc1`, 6.47.
The result for `COc1ccc(Cl)cc1N1CCN(CCNC(=O)c2ccncc2)CC1` reads 7.18; that for `Cc1ccc(N2CCN(CCNC(=O)c3cccnc3)CC2)c(C)c1`, 5.94.
The result for `COc1ccc(N2CCN(CCNC(=O)c3cccnc3)CC2)cc1` reads 5.79; that for `COc1ccccc1N1CCN(CCNC(=O)c2cccnc2)CC1`, 7.87; that for `COc1ccc(N2CCN(CCNC(=O)c3cc4ccccc4oc3=O)CC2)cc1`, 7.74.
